Among the data in patent US4520026A, “Indolizine derivatives and use as cardiovascular agents” (S. A. Labaz N.V., priority 1982, dated 1985) are Anti-α effect, Anti-β effect and inhibition in vivo values, retold here.

Assay [1] has as its system epinephrine-increased blood-pressure (anti-α effect). As to the kind of experiment: Antiadrenergic effect: anti-α effect (reduction of epinephrine-increased blood-pressure). The note with it: dog. The format is in vivo. The protocol: (§1) The purpose of this test was to determine the capacity of the compounds under study to reduce epinephrine-increased blood-pressure (anti-α effect) and epinephrine-accelerated heart rate (anti-β effect) in the dog previously anaesthetized with pentobarbital and atropinized.
(§2) For each dog, the dose of epinephrine was first determined which provoked a reproductible increase by about 100 mm. Hg in the arterial pressure (between 5 and 10 μg/kg). After that, the dose of epinephrine so determined was administered followed by a dose by intravenous route of the compound to be studied. The percentage of reduction of the hypertension provoked by the compound under study in comparison with the hypertension previously obtained (about 100 mm. Hg) was then registered.
(§3) The percentage of reduction of the epinephrine-induced acceleration of heart-rate produced by the compound under study in comparison with the tachycardia previously measured (about 70 beats) was then registered. In both cases, the results were expressed as follows: […]
(§4) + for a <50%-reduction of the increase in pressure or cardiac frequency
(§5) ++ for a ≥50%-reduction of the increase in pressure or cardiac frequency
(§6) +++ for a subtotal reduction of the increase in pressure or cardiac frequency

Assay [2] has as its system epinephrine-accelerated heart rate (anti-β effect). As to the kind of experiment: Antiadrenergic effect: anti-β effect (reduction of epinephrine-accelerated heart rate). The format is in vivo. The note with it: dog. The protocol: as §1, §2, §3, §4, §5, §6
The mark [3] stands for this setting: Canis lupus familiaris, iv, dose 10 mg/kg i.v.
Where [4] appears, read: Canis lupus familiaris, iv, dose 7.8 mg/kg i.v.
The mark [5] stands for this setting: Canis lupus familiaris, iv, dose 5 mg/kg i.v.

On to `CCCc1c(Br)c2ccccn2c1C(=O)c1cc(Br)c(OCCCN(CCC)CCC)c(Br)c1` [Br/Br/Br/n-C3H7/n-C3H7/3, 1-Bromo-2-n-propyl-3-[4-(3-di-n-propylaminopropyl)-oxy-3,5-dibromo-benzoyl]-indolizine], for which, in assay [1] (dose 10 mg/kg i.v.), the Anti-α effect entry is listed as “+++”. Also, the Anti-β effect entry in assay [2] (dose 10 mg/kg i.v.) is reported as “+++”.
One may read the inhibition in vivo as the drop in the measured response relative to a control, in per cent. Lower therefore signals little suppression. For the compound `CCCCN(CCCC)CCCOc1ccc(C(=O)c2c(-c3ccc(F)cc3)c(Br)c3ccccn23)cc1Br` [Br/Br/H/drawing 23/n-C4H9/3], the Anti-α effect result in assay [1] (dose 10 mg/kg i.v.) was “+++”. In assay [2] (setting [3]), the inhibition in vivo at 10 mg/kg was > 50%.
In the case of `CCCN(CCC)CCCOc1c(Cl)cc(C(=O)c2c(-c3ccccc3)c(Br)c3ccccn23)cc1Cl` [Br/Cl/Cl/drawing 39/n-C3H7/3, 1-Bromo-2-phenyl-3-[4-(3-di-n-propylaminopropyl)-oxy-3,5-dichloro-benzoyl]-indolizine], the inhibition in vivo at 10 mg/kg in assay [1] (setting [3]) and in assay [2] (setting [3]) was > 50% throughout.
As for `CCCCN(CCCC)CCCOc1c(Cl)cc(C(=O)c2c(-c3ccccc3)c(Br)c3ccccn23)cc1Cl` [Br/Cl/Cl/drawing 40/n-C4H9/3, 1-Bromo-2-phenyl-3-[4-(3-di-n-butylaminopropyl)-oxy-3,5-dichloro-benzoyl]-indolizine], the inhibition in vivo at 10 mg/kg in assay [1] (setting [3]) and in assay [2] (setting [3]) was > 50% in each case.
Regarding `CCCN(CCC)CCCOc1ccc(C(=O)c2c(CC)c(Br)c3ccccn23)cc1Cl` [Br/Cl/H/C2H5/n-C3H7/3, 1-Bromo-2-ethyl-3-[4-(3-di-n-propylaminopropyl)-oxy-3-chloro-benzoyl]-indolizine], the inhibition in vivo at 7.8 mg/kg in assay [1] (setting [4]) and in assay [2] (setting [4]) was > 50% each time.
With `CCCCN(CCCC)CCCOc1ccc(C(=O)c2c(CC)c(Br)c3ccccn23)cc1Cl` [Br/Cl/H/C2H5/n-C4H9/3, 1-Bromo-2-ethyl-3-[4-(3-di-n-butylaminopropyl)-oxy-3-chloro-benzoyl]-indolizine], in assay [1] (dose 10 mg/kg i.v.), the Anti-α effect result was “+++”. For the same compound, the Anti-β effect entry in assay [2] (dose 10 mg/kg i.v.) is “+++”.
For the compound `CCCCN(CCCC)CCCOc1ccc(C(=O)c2c(-c3ccccc3)c(Br)c3ccccn23)cc1Cl` [Br/Cl/H/drawing 26/n-C4H9/3], the inhibition in vivo at 10 mg/kg in assay [1] (setting [3]) was > 50%. For the same compound, the Anti-β effect entry in assay [2] (dose 10 mg/kg i.v.) is on record as “+++”.
Take `CCCN(CCC)CCCOc1ccc(C(=O)c2c(-c3ccc(Br)cc3)c(Br)c3ccccn23)cc1Cl` [Br/Cl/H/drawing 27/n-C3H7/3]: the inhibition in vivo at 10 mg/kg in assay [1] (setting [3]) and in assay [2] (setting [3]) was > 50% in each case.
For `CCCCN(CCCC)CCCOc1ccc(C(=O)c2c(-c3ccc(Cl)cc3)c(Br)c3ccccn23)cc1Cl` [Br/Cl/H/drawing 28/n-C4H9/3], the inhibition in vivo at 10 mg/kg in assay [1] (setting [3]) and in assay [2] (setting [3]) was > 50% in each case.
Take `CCCN(CCC)CCCOc1ccc(C(=O)c2c(-c3ccc(Cl)cc3)c(Br)c3ccccn23)cc1Cl` [Br/Cl/H/drawing 30/n-C3H7/3]: the Anti-α effect entry in assay [1] (dose 10 mg/kg i.v.) was “+++”. Further, the inhibition in vivo at 10 mg/kg in assay [2] (setting [3]) was > 50%.
Regarding `CCCN(CCC)CCCOc1ccc(C(=O)c2c(-c3cccc(Br)c3)c(Br)c3ccccn23)cc1Cl` [Br/Cl/H/drawing 32/n-C3H7/3], in assay [1] (dose 10 mg/kg i.v.), the Anti-α effect result is recorded as “+++”. For the same compound, in assay [2] (dose 10 mg/kg i.v.), the Anti-β effect entry is recorded as “+++”.
As to `CCCCN(CCCC)CCCOc1ccc(C(=O)c2c(CC)c(Br)c3ccccn23)cc1` [Br/H/H/C2H5/n-C4H9/3, 1-Bromo-2-ethyl-3-[4-(3-di-n-butylaminopropyl)-oxy-benzoyl]-indolizine], the Anti-α effect result in assay [1] (dose 6 mg/kg i.v.) is on record as “+++”. Besides, the Anti-β effect result in assay [2] (dose 6 mg/kg i.v.) is reported as “+++”.
Take `CCCCN(CCCC)CCCOc1ccc(C(=O)c2c(CC)c(Br)c3ccccn23)cc1OC` [Br/OCH3/H/C2H5/n-C4H9/3, 1-Bromo-2-ethyl-3-[4-(3-di-n-butylaminopropyl)-oxy-3-methoxy-benzoyl]-indolizine]: the inhibition in vivo at 5 mg/kg in assay [1] (setting [5]) and in assay [2] (setting [5]) was > 50% throughout.
